Values after ≈ are worked out from the molar mass of the structure shown.

For the first experiment, the system named is Nakaseomyces glabratus. Nature of the experiment: Antifungal activity against Candida glabrata assessed as inhibition of fungal growth by CLSI M27-A3 guidelines based method. The class given is functional.
Settings: not given
One may read the MIC80 as an inhibitory concentration at the 80% level, which refers to growth in some studies and to a panel of isolates in others. In the case of `CN(Cc1ccc(N2CCN(Cc3ccc(S(C)(=O)=O)cc3)CC2)cc1)CC(O)(Cn1cncn1)c1ccc(F)cc1F` (stereo not given), the MIC80 was 3.2 µg/mL (≈ 5.24 µM).
Take `CN(Cc1ccc(N2CCN(Cc3ccccc3Br)CC2)cc1)CC(O)(Cn1cncn1)c1ccc(F)cc1F` (stereo not given): the MIC80 is 0.1 µg/mL (≈ 0.164 µM).
Same read-out and setting: the figure for `CN(Cc1ccc(N2CCN(Cc3ccccc3)CC2)cc1)CC(O)(Cn1cncn1)c1ccc(F)cc1F` (stereo not given) is 0.4 µg/mL (≈ 0.751 µM).

In another experiment the test system is Candida albicans. The experiment in a line: Antifungal activity against fluconazole-resistant Candida albicans clinical isolate 100 assessed as inhibition of fungal growth by CLSI M27-A3 guidelines based method. Format: functional.
Settings: not given
In the case of `CN(Cc1ccc(N2CCN(Cc3ccc(Cl)cc3Br)CC2)cc1)CC(O)(Cn1cncn1)c1ccc(F)cc1F` (stereo not given), the MIC80 stood at 8 µg/mL (≈ 12.4 µM).
On to `CN(Cc1ccc(N2CCN(Cc3ccccc3Br)CC2)cc1)CC(O)(Cn1cncn1)c1ccc(F)cc1F` (stereo not given), for which the MIC80 was found to be 4 µg/mL (≈ 6.54 µM).

A further experiment concerns Pichia kudriavzevii. Nature of the experiment: Antifungal activity against Candida krusei GIM 2.1 assessed as inhibition of fungal growth by CLSI M27-A3 guidelines based method. Format: functional.
Settings: not given
As to `CN(Cc1ccc(N2CCN(Cc3ccc(S(C)(=O)=O)cc3)CC2)cc1)CC(O)(Cn1cncn1)c1ccc(F)cc1F` (stereo not given), the MIC80 turned out to be 3.2 µg/mL (≈ 5.24 µM).
For the compound `CN(Cc1ccc(N2CCN(Cc3ccccc3Br)CC2)cc1)CC(O)(Cn1cncn1)c1ccc(F)cc1F` (stereo not given), the MIC80 turned out to be 0.1 µg/mL (≈ 0.164 µM).
With `CN(Cc1ccc(N2CCN(Cc3ccccc3)CC2)cc1)CC(O)(Cn1cncn1)c1ccc(F)cc1F` (stereo not given), the MIC80 amounted to 0.4 µg/mL (≈ 0.751 µM).

Another experiment relates to Candida albicans. Nature of the experiment: Antifungal activity against fluconazole-resistant Candida albicans clinical isolate 632 assessed as inhibition of fungal growth by CLSI M27-A3 guidelines based method. The class given is functional.
Settings: not given
Consider `CN(Cc1ccc(N2CCN(Cc3ccc(Cl)cc3Br)CC2)cc1)CC(O)(Cn1cncn1)c1ccc(F)cc1F` (stereo not given), for which the MIC80 turned out to be 32 µg/mL (≈ 49.5 µM).
The same measure, in the same setting: with `CN(Cc1ccc(N2CCN(Cc3ccccc3Br)CC2)cc1)CC(O)(Cn1cncn1)c1ccc(F)cc1F` (stereo not given) the figure was 8 µg/mL (≈ 13.1 µM).

Another experiment concerns Candida albicans. The experiment in a line: Antifungal activity against fluconazole-resistant Candida albicans CaR assessed as inhibition of fungal growth by CLSI M27-A3 guidelines based method. The class given is functional.
Settings: not given
For `CN(Cc1ccc(N2CCN(Cc3ccc(Cl)cc3Br)CC2)cc1)CC(O)(Cn1cncn1)c1ccc(F)cc1F` (stereo not given), the MIC80 was found to be 0.125 µg/mL (≈ 0.194 µM).
`CN(Cc1ccc(N2CCN(Cc3ccccc3Br)CC2)cc1)CC(O)(Cn1cncn1)c1ccc(F)cc1F` (stereo not given): the MIC80 turned out to be 0.063 µg/mL (≈ 0.103 µM).

The subject of a further experiment is Candida albicans. The experiment in a line: Antifungal activity against fluconazole-resistant Candida albicans clinical isolate 103 assessed as inhibition of fungal growth by CLSI M27-A3 guidelines based method. The class given is functional.
Settings: not given
Turning to `CN(Cc1ccc(N2CCN(Cc3ccc(Cl)cc3Br)CC2)cc1)CC(O)(Cn1cncn1)c1ccc(F)cc1F` (stereo not given), the MIC80 is above 64 µg/mL.
On the same count and under the same terms, with `CN(Cc1ccc(N2CCN(Cc3ccccc3Br)CC2)cc1)CC(O)(Cn1cncn1)c1ccc(F)cc1F` (stereo not given) the figure was 16 µg/mL (≈ 26.2 µM).

Another experiment concerns Candida albicans. The experiment in a line: Antifungal activity against fluconazole-resistant Candida albicans clinical isolate 904 assessed as inhibition of fungal growth by CLSI M27-A3 guidelines based method. The class given is functional.
Settings: not given
Consider `CN(Cc1ccc(N2CCN(Cc3ccc(Cl)cc3Br)CC2)cc1)CC(O)(Cn1cncn1)c1ccc(F)cc1F` (stereo not given), for which the MIC80 is 32 µg/mL (≈ 49.5 µM).
Same read-out and setting: with `CN(Cc1ccc(N2CCN(Cc3ccccc3Br)CC2)cc1)CC(O)(Cn1cncn1)c1ccc(F)cc1F` (stereo not given) the figure was 16 µg/mL (≈ 26.2 µM).

Another experiment deals with Candida albicans. The experiment in a line: Antifungal activity against fluconazole-resistant Candida albicans clinical isolate 901 assessed as inhibition of fungal growth by CLSI M27-A3 guidelines based method. Format: functional.
Settings: not given
As to `CN(Cc1ccc(N2CCN(Cc3ccc(Cl)cc3Br)CC2)cc1)CC(O)(Cn1cncn1)c1ccc(F)cc1F` (stereo not given), the MIC80 was above 64 µg/mL.
On the same count and under the same terms, with `CN(Cc1ccc(N2CCN(Cc3ccccc3Br)CC2)cc1)CC(O)(Cn1cncn1)c1ccc(F)cc1F` (stereo not given) the figure was above 64 µg/mL.

A further experiment deals with Candida albicans. Nature of the experiment: Antifungal activity against Candida albicans SC5314 assessed as inhibition of fungal growth by CLSI M27-A3 guidelines based method. The class given is functional.
Settings: not given
As for `CN(Cc1ccc(N2CCN(Cc3ccc(Cl)cc3Br)CC2)cc1)CC(O)(Cn1cncn1)c1ccc(F)cc1F` (stereo not given), the MIC80 was 0.006 µg/mL (≈ 0.00929 µM).
Same read-out and setting: with `CN(Cc1ccc(N2CCN(Cc3ccc(S(C)(=O)=O)cc3)CC2)cc1)CC(O)(Cn1cncn1)c1ccc(F)cc1F` (stereo not given) the figure was 0.4 µg/mL (≈ 0.655 µM).
Still for that read-out and setting: the figure for `CN(Cc1ccc(N2CCN(Cc3ccccc3Br)CC2)cc1)CC(O)(Cn1cncn1)c1ccc(F)cc1F` (stereo not given) is 0.013 µg/mL (≈ 0.0213 µM).
Still for that read-out and setting: with `CN(Cc1ccc(N2CCN(Cc3ccccc3)CC2)cc1)CC(O)(Cn1cncn1)c1ccc(F)cc1F` (stereo not given) the figure was 0.013 µg/mL (≈ 0.0244 µM).

A further experiment has as its system Candida parapsilosis. Nature of the experiment: Antifungal activity against Candida parapsilosis GIM 2.190 assessed as inhibition of fungal growth by CLSI M27-A3 guidelines based method. The class given is functional. The note with it: Lodderomyces parapsilosis.
Take `CN(Cc1ccc(N2CCN(Cc3ccc(Cl)cc3Br)CC2)cc1)CC(O)(Cn1cncn1)c1ccc(F)cc1F` (stereo not given): the MIC80 is 0.006 µg/mL (≈ 0.00929 µM).
Same read-out and setting: with `CN(Cc1ccc(N2CCN(Cc3ccc(S(C)(=O)=O)cc3)CC2)cc1)CC(O)(Cn1cncn1)c1ccc(F)cc1F` (stereo not given) the figure was 0.8 µg/mL (≈ 1.31 µM); with `CN(Cc1ccc(N2CCN(Cc3ccccc3Br)CC2)cc1)CC(O)(Cn1cncn1)c1ccc(F)cc1F` (stereo not given), 0.006 µg/mL (≈ 0.00981 µM); with `CN(Cc1ccc(N2CCN(Cc3ccccc3)CC2)cc1)CC(O)(Cn1cncn1)c1ccc(F)cc1F` (stereo not given), 0.025 µg/mL (≈ 0.0469 µM).

In the next experiment the test system is Candida albicans. Nature of the experiment: Antifungal activity against fluconazole and iodiconazole resistant Candida albicans clinical isolate 17# assessed as inhibition of fungal growth by CLSI M27-A3 guidelines based method. Format: functional.
Settings: not given
On to `CN(Cc1ccc(N2CCN(Cc3ccc(Cl)cc3Br)CC2)cc1)CC(O)(Cn1cncn1)c1ccc(F)cc1F` (stereo not given), for which the MIC80 was determined as 1 µg/mL (≈ 1.55 µM).
For the compound `CN(Cc1ccc(N2CCN(Cc3ccccc3Br)CC2)cc1)CC(O)(Cn1cncn1)c1ccc(F)cc1F` (stereo not given), the MIC80 came out at 0.063 µg/mL (≈ 0.103 µM).

In a further experiment the test system is Candida tropicalis. Nature of the experiment: Antifungal activity against Candida tropicalis GIM 2.183 assessed as inhibition of fungal growth by CLSI M27-A3 guidelines based method. Format: functional.
Settings: not given
With `CN(Cc1ccc(N2CCN(Cc3ccc(Cl)cc3Br)CC2)cc1)CC(O)(Cn1cncn1)c1ccc(F)cc1F` (stereo not given), the MIC80 came to 0.006 µg/mL (≈ 0.00929 µM).
Still for that read-out and setting: with `CN(Cc1ccc(N2CCN(Cc3ccc(S(C)(=O)=O)cc3)CC2)cc1)CC(O)(Cn1cncn1)c1ccc(F)cc1F` (stereo not given) the figure was 0.4 µg/mL (≈ 0.655 µM).
Turning to `CN(Cc1ccc(N2CCN(Cc3ccccc3Br)CC2)cc1)CC(O)(Cn1cncn1)c1ccc(F)cc1F` (stereo not given), the MIC80 was 0.013 µg/mL (≈ 0.0213 µM).
Same read-out and setting: the figure for `CN(Cc1ccc(N2CCN(Cc3ccccc3)CC2)cc1)CC(O)(Cn1cncn1)c1ccc(F)cc1F` (stereo not given) is 0.013 µg/mL (≈ 0.0244 µM).

The subject of the next experiment is Cryptococcus neoformans. Nature of the experiment: Antifungal activity against Cryptococcus neoformans CGMCC 2.3161 assessed as inhibition of fungal growth by CLSI M27-A3 guidelines based method. The class given is functional.
Settings: not given
For the compound `CN(Cc1ccc(N2CCN(Cc3ccc(S(C)(=O)=O)cc3)CC2)cc1)CC(O)(Cn1cncn1)c1ccc(F)cc1F` (stereo not given), the MIC80 was found to be 3.2 µg/mL (≈ 5.24 µM).
Consider `CN(Cc1ccc(N2CCN(Cc3ccccc3)CC2)cc1)CC(O)(Cn1cncn1)c1ccc(F)cc1F` (stereo not given), for which the MIC80 was 0.2 µg/mL (≈ 0.375 µM).

The next experiment relates to Candida albicans. The experiment in a line: Antifungal activity against Candida albicans GIM 2.194 assessed as inhibition of fungal growth by CLSI M27-A3 guidelines based method. Format: functional.
Settings: not given
As for `CN(Cc1ccc(N2CCN(Cc3ccc(Cl)cc3Br)CC2)cc1)CC(O)(Cn1cncn1)c1ccc(F)cc1F` (stereo not given), the MIC80 came to 0.006 µg/mL (≈ 0.00929 µM).
The same measure, in the same setting: the figure for `CN(Cc1ccc(N2CCN(Cc3ccc(S(C)(=O)=O)cc3)CC2)cc1)CC(O)(Cn1cncn1)c1ccc(F)cc1F` (stereo not given) is 0.8 µg/mL (≈ 1.31 µM); for `CN(Cc1ccc(N2CCN(Cc3ccccc3Br)CC2)cc1)CC(O)(Cn1cncn1)c1ccc(F)cc1F` (stereo not given) it is 0.006 µg/mL (≈ 0.00981 µM).
The same measure, in the same setting: the figure for `CN(Cc1ccc(N2CCN(Cc3ccccc3)CC2)cc1)CC(O)(Cn1cncn1)c1ccc(F)cc1F` (stereo not given) is 0.013 µg/mL (≈ 0.0244 µM).

The next experiment relates to Candida albicans. The experiment in a line: Antifungal activity against fluconazole-resistant Candida albicans clinical isolate 311 assessed as inhibition of fungal growth by CLSI M27-A3 guidelines based method. Format: functional.
Settings: not given
Consider `CN(Cc1ccc(N2CCN(Cc3ccc(Cl)cc3Br)CC2)cc1)CC(O)(Cn1cncn1)c1ccc(F)cc1F` (stereo not given), for which the MIC80 is above 64 µg/mL.
Same read-out and setting: with `CN(Cc1ccc(N2CCN(Cc3ccccc3Br)CC2)cc1)CC(O)(Cn1cncn1)c1ccc(F)cc1F` (stereo not given) the figure was 32 µg/mL (≈ 52.3 µM).
